Read-outs that look alike come from different tables or passages of the source.
Experiments:
[1] = tested on: Saccharomycetes Cerevisiae (Fleishmann's Bakers yeast); assay: Saccharomycetes Cerevisiae yeast growth suppression, turbidity of broth suspension; assay type: cell-based; settings: for Turbidity (NTU) OD (To) / Turbidity (NTU) OD (T1 hr) / Turbidity (NTU) OD (T18) / Turbidity (NTU) OD (T24) / Turbidity (NTU) OD (T48): Table 3; for Turbidity (NTU) OD (To): 1 ml solutions added; for Turbidity (NTU) OD (T1 hr): 1 hour; for Turbidity (NTU) OD (T48): 48 hours; for Change in Turbidity from T0 (delta NTU) OD (T1 hr) / Change in Turbidity from T0 (delta NTU) OD (T18) / Change in Turbidity from T0 (delta NTU) OD (T24) / Change in Turbidity from T0 (delta NTU) OD (T48): Table 3A; for Change in Turbidity from T0 (delta NTU) OD (T48): 48 hours minus time zero; for T18 − T0 (change in turbidity) / T48 − T0 (change in turbidity) / T72 − T0 (change in turbidity) / T96 − T0 (change in turbidity) / T18 (turbidity of yeast suspension) / T48 (turbidity of yeast suspension) / T72 (turbidity of yeast suspension) / T96 (turbidity of yeast suspension) / T0 (turbidity of yeast suspension): surfactant ~0.05 wt %; for T0 (turbidity of yeast suspension): time 0
Description: Saccharomycetes Cerevisiae was selected as a test organism as it is generally accepted in the industry as an indicator or surrogate organism for a wide variety of fungi. In each of these experiments, the same general procedure was followed unless otherwise indicated.
Experimental Detail: A growth medium was prepared by adding 10 grams of nutrient medium (Difco Sabouraud dextrose broth from BD of Franklin Lakes, N.J., USA) to 300 ml of distilled water. Fleishmann's Bakers yeast was then added to the growth medium while mixing using a magnetic stirrer until a uniform dispersion was obtained having an initial turbidity of between about 50 and 100 NTU as measured using a HF Instruments DRT 100B Turbidity Meter. Once the appropriate dispersion was obtained, 20 ml aliquots were then dispensed, with continued mixing, into 40 ml borosilicate glass vials with Teflon lined caps (VWR International Cat. No. 15900-004). The system/component to be evaluated was then added to the vial and intimately shaken to ensure a good, substantially homogeneous mixture. The turbidity of each mixture was then determined and the vial transferred to an incubator at 30° C. Each vial was periodically removed from the incubator and the mixture in the vials assessed for turbidity: the specific timing for such evaluation was as set forth in the discussion of the experiments and the accompanying tables.
In each experiment, unless otherwise specified, a 2 ml aqueous solution containing the specified bioactive system or component thereof was added to the 20 ml yeast suspension and mixed thoroughly. Typically the surfactants were added separately in a concentrated solution in water; however, the volume added was negligible: a fraction of an ml. For convenience in understanding efficacy levels, the amounts or concentrations of the various components presented in each of the following tables and experiments are of the diluted material in the test vial: not of the concentrate added to the test vial. Furthermore, the concentrations presented are on the basis of a 20 ml total volume, not the actual 22+ ml volume. Multiplying each of the listed concentrations by 0.9 (or 0.95 with those compositions using 1 ml aqueous solutions) will provide a more accurate assessment of the concentrations of the various components evaluated, i.e., a 5 ppm silver concentration is actually closer to 4.5 ppm. Finally, for those vials to which no bioactive system or component thereof was added (the controls) or which only contained the surfactants, 2 ml of additional growth medium was added to ensure relative equivalent dilutions of the yeast.
In the tables below, the results are presented as the actual turbidity readings (NTU) with a sub-table presenting the change or delta in NTU values. Given the nature of the system, changes in turbidity are reflective of the relative performance/bioefficacy of the bioactive systems and their components.

[2] = tested on: E. amylovora 153N; assay: Fire blight on crabapples (Example 287); assay type: in vivo, Snow Drift crabapple trees
Description: A study of the bioefficacy of the various agrichemical compositions, including bioactive acid solutions and blends thereof with an antibiotic agrichemical, were evaluated to assess their bioefficacy against fire blight on crabapples. The study was conducted on 5 year old Snow Drift crabapple trees, with each of the compositions being applied to ten trees in two-subplots of five trees, four different times: at 100% bloom-day 1, a second application was made on day 4, a third on day 11 and a final treatment on day 19. The trees were inoculated with E. amylovora […] at a concentration of 4×10^6 cells per milliliter on day 1, following drying of the treatment, with the inoculation being repeated on day 13. Evaluation for fire blight was completed on 100 blossoms for each of the subplots on day 12, day 19 and day 27. Additionally, the incidence of shoot infection and the length of […] evaluated on day 63. The test compositions were prepared by forming solutions of the bioactive agents. Two different dilutions of the MI2 bioactive were evaluated; the first employing 94.46 ml/gallon (25 ml/l) of water (5 ppm of each metal) and the second 188.9 ml/gallon (50 ml/l) of water (10 ppm of each metal). […] Finally, copper hydroxide was diluted at a rate of 1 lb/gallon (119.8 g/l). Each of the compositions and blends were spray applied at a rate of 50 gallons (189.3 l) pre acre. The results are presented as the mean of the counts.

[3] = 1 hour minus time zero, sulfate
[4] = 18 hours minus time zero, sulfate
[5] = 24 hours minus time zero, sulfate
[6] = Metal ppm 2.5, about 0.2% citric acid
[7] = Metal ppm 2.5 each of copper, silver, zinc, about 0.2% citric acid
[8] = Metal ppm 5, approximately 0.4% citric acid
[9] = Metal ppm 5 each of copper, silver, zinc, approximately 0.4% citric acid

## CCCCCCCCCCCCOS(=O)(=O)[O-].[Na+] [Example 46]
[1]; time zero, sulfate
  Turbidity (NTU) OD (To): 37 NTU
[1]; sulfate
  Turbidity (NTU) OD (T1 hr): 42 NTU
  Turbidity (NTU) OD (T48): 605 NTU
  Change in Turbidity from T0 (delta NTU) OD (T48): 568 delta NTU
[1]; 18 hours, sulfate
  Turbidity (NTU) OD (T18): 495 NTU
[1]; 24 hours, sulfate
  Turbidity (NTU) OD (T24): 610 NTU
[1]; [3]
  Change in Turbidity from T0 (delta NTU) OD (T1 hr): 5 delta NTU
[1]; [4]
  Change in Turbidity from T0 (delta NTU) OD (T18): 458 delta NTU
[1]; [5]
  Change in Turbidity from T0 (delta NTU) OD (T24): 573 delta NTU

## O=C(O)CC(O)(CC(=O)O)C(=O)O [Example 49, citric acid]
[1]; time zero
  Turbidity (NTU) OD (To): 42 NTU
[1]
  Turbidity (NTU) OD (T1 hr): 46 NTU
  Turbidity (NTU) OD (T48): 878 NTU
  Change in Turbidity from T0 (delta NTU) OD (T48): 836 delta NTU
[1]; 18 hours
  Turbidity (NTU) OD (T18): 835 NTU
[1]; 24 hours
  Turbidity (NTU) OD (T24): 920 NTU
[1]; 1 hour minus time zero
  Change in Turbidity from T0 (delta NTU) OD (T1 hr): 4 delta NTU
[1]; 18 hours minus time zero
  Change in Turbidity from T0 (delta NTU) OD (T18): 793 delta NTU
[1]; 24 hours minus time zero
  Change in Turbidity from T0 (delta NTU) OD (T24): 878 delta NTU

## [Cu+2].[OH-].[OH-] [copper hydroxide]
[2]; evaluated on day 63
  shoot blight incidence, in words: greatly reduced
[2]; length of cankers evaluated on day 63
  canker, in words: appeared to prevent canker

## CCCCCCCCCCCCOS(=O)(=O)[O-].[Na+]
[1]; neat, Metal ppm 0
  T18 − T0 (change in turbidity): 447
  T48 − T0 (change in turbidity): 610
  T72 − T0 (change in turbidity): 594
  T96 − T0 (change in turbidity): 591
  T18 (turbidity of yeast suspension): 495
  T48 (turbidity of yeast suspension): 658
  T72 (turbidity of yeast suspension): 642
  T96 (turbidity of yeast suspension): 639
  T0 (turbidity of yeast suspension): 48
[1]; [6]
  T18 − T0 (change in turbidity): 2
  T48 − T0 (change in turbidity): 0
  T72 − T0 (change in turbidity): 0
  T96 − T0 (change in turbidity): −1
[1]; [7]
  T18 (turbidity of yeast suspension): 90
  T48 (turbidity of yeast suspension): 88
  T72 (turbidity of yeast suspension): 88
  T96 (turbidity of yeast suspension): 87
  T0 (turbidity of yeast suspension): 88
[1]; [8]
  T18 − T0 (change in turbidity): 13
  T48 − T0 (change in turbidity): 2
  T72 − T0 (change in turbidity): 7
  T96 − T0 (change in turbidity): 1
[1]; [9]
  T18 (turbidity of yeast suspension): 244
  T48 (turbidity of yeast suspension): 233
  T72 (turbidity of yeast suspension): 238
  T96 (turbidity of yeast suspension): 232
  T0 (turbidity of yeast suspension): 231

## CCCCCCCCCCCCOS(=O)(=O)[O-].[Na+] [Example 45]
[1]; time zero, sulfate
  Turbidity (NTU) OD (To): 43 NTU
[1]; sulfate
  Turbidity (NTU) OD (T1 hr): 47 NTU
  Turbidity (NTU) OD (T48): 758 NTU
  Change in Turbidity from T0 (delta NTU) OD (T48): 715 delta NTU
[1]; 18 hours, sulfate
  Turbidity (NTU) OD (T18): 675 NTU
[1]; 24 hours, sulfate
  Turbidity (NTU) OD (T24): 728 NTU
[1]; [3]
  Change in Turbidity from T0 (delta NTU) OD (T1 hr): 4 delta NTU
[1]; [4]
  Change in Turbidity from T0 (delta NTU) OD (T18): 632 delta NTU
[1]; [5]
  Change in Turbidity from T0 (delta NTU) OD (T24): 685 delta NTU

## O=C([O-])CC(O)(CC(=O)[O-])C(=O)[O-].[Ag+].[Ag+].[Ag+] [Example 1, silver citrate]
[1]; Table 1, 1 hour at 30° C.
  Turbidity (NTU) Time 1 Hr: 59.6 NTU
[1]; Table 1, 18 hours
  Turbidity (NTU) T 18 hours: 890 NTU
[1]; Table 1, 24 hours
  Turbidity (NTU) T 24 hours: 932 NTU
[1]; Table 1, 96 hours
  Turbidity (NTU) T 96 Hours: 995 NTU
[1]; Table 1, time zero
  Turbidity (NTU) Time zero: 44.5 NTU
[1]; Table 1A, 1 hour minus time zero
  Change in Turbidity from T0 (delta NTU) Time 1 Hr: 15.1 delta NTU
[1]; Table 1A, 18 hours minus time zero
  Change in Turbidity from T0 (delta NTU) T 18 hours: 845.5 delta NTU
[1]; Table 1A, 24 hours minus time zero
  Change in Turbidity from T0 (delta NTU) T 24 hours: 887.5 delta NTU
[1]; Table 1A, 96 hours minus time zero
  Change in Turbidity from T0 (delta NTU) T 96 Hours: 950.5 delta NTU

## copper citrate [Example 13]
[1]
  Change in Turbidity from T0 (delta NTU) T 96 Hours: 1054.4 delta NTU
  Change in Turbidity from T0 (delta NTU) T 18 hours: 894.4 delta NTU
  Change in Turbidity from T0 (delta NTU) T 24 hours: 975.4 delta NTU
  Change in Turbidity from T0 (delta NTU) Time 1 Hr: 22.4 delta NTU
  Turbidity (NTU) T 96 Hours: 1100 NTU
  Turbidity (NTU) T 18 hours: 940 NTU
  Turbidity (NTU) T 24 hours: 1021 NTU
  Turbidity (NTU) Time 1 Hr: 68 NTU
  Turbidity (NTU) Time zero: 45.6 NTU

## O=C([O-])CC(O)(CC(=O)[O-])C(=O)[O-].O=C([O-])CC(O)(CC(=O)[O-])C(=O)[O-].[Zn+2].[Zn+2].[Zn+2] [Example 7, zinc citrate]
[1]
  Change in Turbidity from T0 (delta NTU) T 96 Hours: 1007.2 delta NTU
  Change in Turbidity from T0 (delta NTU) T 18 hours: 948.2 delta NTU
  Change in Turbidity from T0 (delta NTU) T 24 hours: 949.2 delta NTU
  Change in Turbidity from T0 (delta NTU) Time 1 Hr: 20.7 delta NTU
  Turbidity (NTU) T 96 Hours: 1051 NTU
  Turbidity (NTU) T 18 hours: 992 NTU
  Turbidity (NTU) T 24 hours: 993 NTU
  Turbidity (NTU) Time 1 Hr: 64.5 NTU
  Turbidity (NTU) Time zero: 43.8 NTU

## O=C(O)CC(O)(CC(=O)O)C(=O)O [Example 50, citric acid]
[1]; time zero
  Turbidity (NTU) OD (To): 38 NTU
[1]
  Turbidity (NTU) OD (T1 hr): 44 NTU
  Turbidity (NTU) OD (T48): 852 NTU
  Change in Turbidity from T0 (delta NTU) OD (T48): 814 delta NTU
[1]; 18 hours
  Turbidity (NTU) OD (T18): 780 NTU
[1]; 24 hours
  Turbidity (NTU) OD (T24): 864 NTU
[1]; 1 hour minus time zero
  Change in Turbidity from T0 (delta NTU) OD (T1 hr): 6 delta NTU
[1]; 18 hours minus time zero
  Change in Turbidity from T0 (delta NTU) OD (T18): 742 delta NTU
[1]; 24 hours minus time zero
  Change in Turbidity from T0 (delta NTU) OD (T24): 826 delta NTU
